pKd: −log10 of the molar value.
Assays:
[1] = target: T1, Staphylococcus aureus monofunctional glycosyltransferase (SaMGT) (Staphylococcus aureus, UniProt Q7A0I6); test: ITC (VP-ITC, […] °C, sequential binding site model)
T1 construct: gene mgt; wild-type full-length SaMGT (residues Q28-R269)

[2] = target: T2, Staphylococcus aureus monofunctional glycosyltransferase (SaMGT) (Staphylococcus aureus, UniProt Q7A0I6, E100Q); test: X-ray crystal structure, […] Å (re-refinement of 3HZS, polder omit maps); format: binding
T2 construct: gene mgt

## C=C(C/C=C(\C)CCC=C(C)C)CCC(C)(C)/C=C/CC/C(C)=C\CO[C@H](COP(=O)(O)O[C@H]1O[C@H](C(N)=O)[C@@](C)(O)[C@H](OC(N)=O)[C@H]1O[C@@H]1O[C@H](CO[C@@H]2O[C@H](CO)[C@@H](O)[C@H](O)[C@H]2O)[C@@H](O[C@@H]2O[C@H](C)[C@@H](O[C@@H]3O[C@H](C(=O)NC4=C(O)CCC4=O)[C@H](O)[C@H](O)[C@H]3O)[C@H](O)[C@H]2NC(C)=O)[C@H](O)[C@H]1NC(C)=O)C(=O)O [MoeA, moenomycin A]
[1]
  pKd: 6.27
[2]
  X-ray crystal structure, 2.1 Å (re-refinement of 3HZS, polder omit maps): Overall view of the re-refined structure of SaMGT E100Q mutant with bound MoeA (PDB ID code 6FTB).

From paper PMC6053601, “The role of the jaw subdomain of peptidoglycan glycosyltransferases for lipid II polymerization” (The Cell Surface, 2018)
